Laboratory results published in patent publication US20260091086A1, “POLYPEPTIDE COMBINATIONS AND USES THEREOF” (MEDIMMUNE LIMITED, priority 2024, published 2026).
Numbered stars: 1 amine (or outer) side, 2 acyl side, 3 side chain; on linkers, the order of the positions; unused ones are H or OH. Bridge positions count the residues as written; N and C are the ends. Square brackets hold non-standard residues; d marks the D form. Side chains are listed from the residue outwards. Ends that are not written are not given here. * marks the point of attachment. C18 diacid = O=C(O)CCCCCCCCCCCCCCCCC(=O)*; γGlu = O=C(O)[C@H](CCC(=O)[*:2])N[*:1]; αMeF = C[C@](N)(Cc1ccccc1)C(=O)O

Tested on: DIO rat
Test: Example 3: repeat dose DIO rat gastric emptying study
Type: in vivo
Conditions: 2 nmol/kg monotherapy, beyond 7 days of treatment
Text: Study Design: […] X-ray fluoroscopic quantification was used to assess gastric emptying. In this experiment, the LAA was that of SEQ ID NO: 11, and the GLP-1R agonist was semaglutide.

Substance: K(γE-γE-C18diacid)[CNTATC]ATQRLANFLRHSSNN(αMePhe)GPILPPTEVGSNTY-amide (K([γGlu-γGlu-C18 diacid])CNTATCATQRLANFLRHSSNN[αMeF]GPILPPTEVGSNTY-NH2; disulfide 2-7) [LAA]
- GE delay on repeat dosing: maintained GE delay beyond 7 days of treatment
